The record followed here is PubChem BioAssay AID248 (DTP/NCI, 2004).

This experiment has as its system L1210 leukemia ip in BDF1 mice, survival T/C. Description: NCI In Vivo Anticancer Drug Screen. Data for tumor model L1210 Leukemia (intraperitoneal) in B6D2F1 (BDF1) mice. The conditions noted are these: endpoint: mean survival time, higher = longer survival. The gist of the method: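 Tumor cells were implanted, animals were treated, and survival was followed. The result divides the treated measurement by the vehicle-control measurement.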

[1] abbreviates: dose: 100.0 mg/kg/injection, schedule: Q04DX002 (ip), vehicle: Klucel (hydroxypropylcellulose) (HPC).
Setting [2] is: dose: 200.0 mg/kg/injection, schedule: Q04DX002 (ip), vehicle: Klucel (hydroxypropylcellulose) (HPC).
Where [3] appears, read: dose: 400.0 mg/kg/injection, schedule: Q04DX002 (ip), vehicle: Klucel (hydroxypropylcellulose) (HPC).
Setting [4] is: dose: 100.0 mg/kg/injection, schedule: Q01DX001 (ip), vehicle: carboxymethylcellulose (CMC).
The mark [5] stands for this setting: dose: 200.0 mg/kg/injection, schedule: Q01DX001 (ip), vehicle: carboxymethylcellulose (CMC).
The mark [6] stands for this setting: dose: 400.0 mg/kg/injection, schedule: Q01DX001 (ip), vehicle: carboxymethylcellulose (CMC).
Where [7] appears, read: dose: 100.0 mg/kg/injection, schedule: Q01DX009 (ip), vehicle: Klucel (hydroxypropylcellulose) (HPC).
The mark [8] stands for this setting: dose: 100.0 mg/kg/injection, schedule: Q04DX003 (ip), vehicle: saline with Tween-80.
Where [9] appears, read: dose: 200.0 mg/kg/injection, schedule: Q04DX003 (ip), vehicle: saline with Tween-80.
[10] abbreviates: dose: 400.0 mg/kg/injection, schedule: Q04DX003 (ip), vehicle: saline with Tween-80.
Setting [11] is: dose: 100.0 mg/kg/injection, schedule: Q01DX001 (ip), vehicle: saline.
Setting [12] is: dose: 200.0 mg/kg/injection, schedule: Q01DX001 (ip), vehicle: saline.
Where [13] appears, read: dose: 400.0 mg/kg/injection, schedule: Q01DX001 (ip), vehicle: saline.
The mark [14] stands for this setting: dose: 100.0 mg/kg/injection, schedule: Q04DX003 (ip), vehicle: saline.

“And” between values parts separate entries of the source, which are not always exact repeats. Identical values can stand only once. Toxic doses and inconclusive results are not listed.

As for `Cc1c(O)cc2c(c1O)C(=O)CC(c1ccc(O)cc1)O2` (stereo not drawn), the T/C by setting is: under setting [1], 91 % of control; under setting [2], 87 % of control; under setting [3], 108 % of control.
Consider `O=C(O)c1ccc(O)cn1`, for which the T/C was 93 % of control under setting [4], 95 % of control under setting [5] and 95 % of control under setting [6].
As for `CC(OC(C)c1ccccc1)c1ccccc1` (stereo not drawn), the T/C was 96 % of control under setting [7]; 105 % of control (dose: 200.0 mg/kg/injection, schedule: Q01DX009 (ip), vehicle: Klucel (hydroxypropylcellulose) (HPC)); 101 % of control (dose: 400.0 mg/kg/injection, schedule: Q01DX009 (ip), vehicle: Klucel (hydroxypropylcellulose) (HPC)).
As to `S=c1[nH]c(=S)c2[nH]cnc(=S)c2[nH]1`, the T/C runs as follows: (dose: 2.0 mg/kg/injection, schedule: Q01DX Z (ip), vehicle: carboxymethylcellulose (CMC)) 103 % of control; (dose: 4.0 mg/kg/injection, schedule: Q01DX Z (ip), vehicle: carboxymethylcellulose (CMC)) 91 % of control; (dose: 8.0 mg/kg/injection, schedule: Q01DX Z (ip), vehicle: carboxymethylcellulose (CMC)) 89 % of control; (dose: 12.5 mg/kg/injection, schedule: Q01DX Z (ip), vehicle: carboxymethylcellulose (CMC)) 91 % of control; (dose: 25.0 mg/kg/injection, schedule: Q01DX Z (ip), vehicle: carboxymethylcellulose (CMC)) 96 % of control.
`COC(=O)C1(C)CSCCC1=O` (stereo not drawn): the T/C (dose: 100.0 mg/kg/injection, schedule: Q01DX009 (ip), vehicle: other) is 94 % of control; the T/C (dose: 200.0 mg/kg/injection, schedule: Q01DX009 (ip), vehicle: other) was 94 % of control; the T/C (dose: 400.0 mg/kg/injection, schedule: Q01DX009 (ip), vehicle: other) is 99 % of control.
With `O=C(Nc1cccc(S(=O)(=O)F)c1)c1ccc(COc2ccc([N+](=O)[O-])cc2Cl)cc1`, the T/C is 100 % of control (dose: 100.0 mg/kg/injection, schedule: Q01DX009 (ip), vehicle: saline sonified); 97 % of control under setting [8]; 100 % of control (dose: 200.0 mg/kg/injection, schedule: Q01DX009 (ip), vehicle: saline sonified); 100 % of control under setting [9]; 94 % of control (dose: 400.0 mg/kg/injection, schedule: Q01DX009 (ip), vehicle: saline sonified); 94 % of control under setting [10].
For `C=C1N(C)c2ccccc2C1(C)C`, the T/C reads like this: (dose: 0.5 mg/kg/injection, schedule: Q01DX015 (ip), vehicle: carboxymethylcellulose (CMC)) 97 % of control; (dose: 1.0 mg/kg/injection, schedule: Q01DX015 (ip), vehicle: carboxymethylcellulose (CMC)) 101 % of control; (dose: 2.0 mg/kg/injection, schedule: Q01DX015 (ip), vehicle: carboxymethylcellulose (CMC)) 104 % of control; (dose: 4.0 mg/kg/injection, schedule: Q01DX015 (ip), vehicle: carboxymethylcellulose (CMC)) 97 % of control and 123 % of control; (dose: 8.0 mg/kg/injection, schedule: Q01DX015 (ip), vehicle: carboxymethylcellulose (CMC)) 123 % of control.
In the case of `COc1cc(N(CCCl)CCCl)ccc1/C=N/Nc1nncn1N`, the T/C runs as follows: (dose: 50.0 mg/kg/injection, schedule: Q01DX001 (ip), vehicle: carboxymethylcellulose (CMC)) 101 % of control; under setting [4], 98 % of control; under setting [5], 110 % of control; under setting [6], 104 % of control.
`CC(C)C12CCC(C)(O1)C(O)C2O` (stereo not drawn): the T/C was 111 % of control under setting [11], 104 % of control under setting [12] and 106 % of control under setting [13].
As for `Nc1nccnc1Nc1ccccc1`, the T/C runs as follows: (dose: 75.0 mg/kg/injection, schedule: Q01DX001 (ip), vehicle: other) 100 % of control; (dose: 150.0 mg/kg/injection, schedule: Q01DX001 (ip), vehicle: other) 100 % of control; (dose: 300.0 mg/kg/injection, schedule: Q01DX001 (ip), vehicle: other) 100 % of control.
Regarding `CC(C)CCC(=O)OC1CCC2(C)C(=CCC3C2CCC2(C)C(O)CCC32)C1` (stereo not drawn), the T/C reads like this: (dose: 100.0 mg/kg/injection, schedule: Q01DX001 (ip), vehicle: saline with Tween-80) 92 % of control; (dose: 200.0 mg/kg/injection, schedule: Q01DX001 (ip), vehicle: saline with Tween-80) 93 % of control; (dose: 400.0 mg/kg/injection, schedule: Q01DX001 (ip), vehicle: saline with Tween-80) 101 % of control.
In the case of `Brc1ccc2c(c1)nc1n2CCC1`, the T/C reads like this: (dose: 100.0 mg/kg/injection, schedule: Q01DX001 (ip), vehicle: acetone) 105 % of control; under setting [14], 104 % of control; (dose: 200.0 mg/kg/injection, schedule: Q01DX001 (ip), vehicle: acetone) 108 % of control; (dose: 200.0 mg/kg/injection, schedule: Q04DX003 (ip), vehicle: saline) 111 % of control; (dose: 400.0 mg/kg/injection, schedule: Q01DX001 (ip), vehicle: acetone) 94 % of control; (dose: 400.0 mg/kg/injection, schedule: Q04DX003 (ip), vehicle: saline) 101 % of control.
As to `COc1ccc(OCC(C)=O)cc1`, the T/C runs as follows: (dose: 100.0 mg/kg/injection, schedule: Q01DX009 (ip), vehicle: saline with Tween-80) 97 % of control; (dose: 200.0 mg/kg/injection, schedule: Q01DX009 (ip), vehicle: saline with Tween-80) 100 % of control; (dose: 400.0 mg/kg/injection, schedule: Q01DX009 (ip), vehicle: saline with Tween-80) 100 % of control.
Regarding `Cc1cccc([N+](=O)[O-])c1-c1c(C)cccc1[N+](=O)[O-]`, the T/C is 102 % of control (dose: 50.0 mg/kg/injection, schedule: Q01DX001 (ip), vehicle: Klucel (hydroxypropylcellulose) (HPC)); 102 % of control (dose: 100.0 mg/kg/injection, schedule: Q01DX001 (ip), vehicle: Klucel (hydroxypropylcellulose) (HPC)); 96 % of control (dose: 200.0 mg/kg/injection, schedule: Q01DX001 (ip), vehicle: Klucel (hydroxypropylcellulose) (HPC)).
Turning to `CCOC(=O)NP(=O)(N1CC1(C)C)N1CC1(C)C` (stereo not drawn), the T/C (dose: 62.5 mg/kg/injection, schedule: Q01DX010 (ip), vehicle: saline) was 115 % of control and 120 % of control; the T/C (dose: 125.0 mg/kg/injection, schedule: Q01DX010 (ip), vehicle: saline) is 117 % of control; the T/C (dose: 250.0 mg/kg/injection, schedule: Q01DX010 (ip), vehicle: saline) is 151 % of control and 157 % of control.
For `CC(=O)Oc1ccccc1/C=C\C=O`, the T/C was 103 % of control under setting [11], 106 % of control under setting [12] and 105 % of control under setting [13].
As to `Cc1ccc(NC(=O)OCCSc2ccc(Cl)cc2)c([N+](=O)[O-])c1`, the T/C by setting is: under setting [1], 99 % of control; under setting [2], 99 % of control; under setting [3], 89 % of control.
`COC(=O)C1CCC[N+](C)(C)C1` (stereo not drawn): the T/C was 95 % of control (dose: 25.0 mg/kg/injection, schedule: Q04DX003 (ip), vehicle: saline); 97 % of control (dose: 50.0 mg/kg/injection, schedule: Q04DX003 (ip), vehicle: saline); 94 % of control under setting [14].
As to `O=C1c2cc(Cl)cc(Cl)c2-c2c(NC(=O)C(Cl)Cl)cc(Cl)cc21`, the T/C is, setting by setting: under setting [7], 91 % of control; (dose: 100.0 mg/kg/injection, schedule: Q04DX003 (ip), vehicle: Klucel (hydroxypropylcellulose) (HPC)) 95 % of control; (dose: 200.0 mg/kg/injection, schedule: Q04DX003 (ip), vehicle: Klucel (hydroxypropylcellulose) (HPC)) 98 % of control; (dose: 400.0 mg/kg/injection, schedule: Q04DX003 (ip), vehicle: Klucel (hydroxypropylcellulose) (HPC)) 93 % of control.
Consider `COc1ccc(/C=N/CCl)cc1`, for which the T/C reads like this: under setting [8], 110 % of control; under setting [9], 92 % of control; under setting [10], 96 % of control.
As to `NC(N)=NNO`, the T/C is 88 % of control under setting [11], 95 % of control under setting [12] and 101 % of control under setting [13].
As to `O=C(O)c1ccc(Cl)cc1Cl`, the T/C was 88 % of control (dose: 100.0 mg/kg/injection, schedule: Q04DX002 (ip), vehicle: gum acacia); 98 % of control (dose: 200.0 mg/kg/injection, schedule: Q04DX002 (ip), vehicle: gum acacia); 100 % of control (dose: 400.0 mg/kg/injection, schedule: Q04DX002 (ip), vehicle: gum acacia).
